{"source": "patent US20180140578A1", "about": "“METHODS AND COMPOSITIONS FOR THE DIAGNOSIS AND SELECTIVE TREATMENT OF CANCER” (Board of Regents of the University of Texas System, priority 2016, published 2018)", "key": {"H125": {"tested_on": "H125", "assay": "IC50 assay, NSCLC cell lines (Cell Titer Glo, total ATP)", "type": "cell-based", "conditions": "Homo sapiens", "summary_of_the_method": "(§1)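 Growth medium was RPMI with 2 mM L-glutamine and 5% serum, with cells starting near 15% confluence. After 3 days at 5% CO2, well ATP content was quantified by luminescent CellTiter-Glo.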"}, "H1703": {"tested_on": "H1703", "assay": "IC50 assay, NSCLC cell lines (Cell Titer Glo, total ATP)", "type": "cell-based", "conditions": "Homo sapiens", "summary_of_the_method": "as §1"}, "H1770": {"tested_on": "H1770", "assay": "IC50 assay, NSCLC cell lines (Cell Titer Glo, total ATP)", "type": "cell-based", "conditions": "Homo sapiens", "summary_of_the_method": "as §1"}, "H460": {"tested_on": "H460", "assay": "IC50 assay, NSCLC cell lines (Cell Titer Glo, total ATP)", "type": "cell-based", "conditions": "Homo sapiens, NCI-H460, read-out: Indisulam IC50 (log 10) (converted), U2AF1 WT", "summary_of_the_method": "as §1"}, "H720": {"tested_on": "H720", "assay": "IC50 assay, NSCLC cell lines (Cell Titer Glo, total ATP)", "type": "cell-based", "conditions": "Homo sapiens", "summary_of_the_method": "as §1"}, "HCC2018": {"tested_on": "HCC2018", "assay": "IC50 assay, NSCLC cell lines (Cell Titer Glo, total ATP)", "type": "cell-based", "conditions": "Homo sapiens", "summary_of_the_method": "as §1"}, "HCC2279": {"tested_on": "HCC2279", "assay": "IC50 assay, NSCLC cell lines (Cell Titer Glo, total ATP)", "type": "cell-based", "conditions": "Homo sapiens", "summary_of_the_method": "as §1"}, "HOP62": {"tested_on": "HOP62", "assay": "IC50 assay, NSCLC cell lines (Cell Titer Glo, total ATP)", "type": "cell-based", "conditions": "Homo sapiens", "summary_of_the_method": "as §1"}, "H2073": {"tested_on": "H2073", "assay": "IC50 assay, NSCLC cell lines (Cell Titer Glo, total ATP)", "type": "cell-based, human", "protocol": "(§2) Cells were plated at ˜15% confluence in a media comprising 5% concentration of fetal bovine serum supplemented with RPMI, which included 2 mM L-Glutamine in a 96 well dish. […] Following three days of incubation in a 5% CO2 incubator, the total ATP in each well was quantified using Cell Titer Glo (Promega). […] The solid lines represent the medians."}, "H650": {"tested_on": "H650", "assay": "IC50 assay, NSCLC cell lines (Cell Titer Glo, total ATP)", "type": "cell-based, human", "conditions": "U2AF1 WT (listed twice)", "protocol": "as §2"}, "HCT-116 cells": {"tested_on": "HCT-116 cells", "assay": "Cell viability assay (CellTiter-Glo)", "type": "cell-based, human", "conditions": "Homo sapiens, read-out: concentration required to reduce the viability by 50% (IC50); parental HCT-116 cells", "protocol": "The identity for all human cell lines in this study was confirmed by short tandem repeat (STR) analysis. In addition, all human cell lines were confirmed to be mycoplasma free using a PCR based assay (Genatlantis). HCT-116 cells (ATCC) were grown in DMEM medium with 10% FBS and 2 mM L-glutamine. Lenti-X 293T cells (Clontech) were cultured in DMEM medium with 10% FBS and 2 mM L-glutamine. H1155 cells (a gift from Adi Gazdar and John Minna, UT Southwestern) were cultured in RPMI media with 5% FBS and 2 mM L-glutamine. SF9 cells (a gift from Hongtao Yu, UT Southwestern) were cultured in SF900 II serum free media (Life Technologies).\n(§3) 12-point dose responses were performed on 96-well assay plates with cell plating (1500-4000 cell per well) on day 1, compound addition on day 2, and survival measurement on day 5. Compounds were diluted in DMSO before adding to the cells. Final DMSO concentration was 0.5%. Cell survival assay was performed using CellTiter-Glo Luminescent Cell Viability Assay kit (Promega) that measures cellular ATP content. Luminescence was recorded by EnVison multimode plate reader (Perkin Elmer). IC50 was determined with GraphPad Prism using baseline correction (by normalizing to DMSO control), the asymmetric (five parameter) equation and least squares fit."}, "[1]": {"tested_on": "H1155 RBM39 G268V knock-in cells", "assay": "Cell viability assay, RBM39 G268V knock-in", "type": "cell-based, human", "protocol": "as §3\n(§4) sgRNA targeting RBM39 (5′-[…]-3′) was cloned into the pSpCas9(BB)-2A-Puro (PX459) vector (Addgene 62988). For RBM39 G268V knock-in, 1 million HCT-116 or H1155 cells were nucleofected (using 4D-Nucleofector, Lonza) with PX459-RBM39 sgRNA and the single-stranded oligo 5′-[…] […] […] […]-3′ (SEQ ID NO: 13)."}, "[2]": {"tested_on": "HCT-116 RBM39 G268V knock-in cells", "assay": "Cell viability assay, RBM39 G268V knock-in", "type": "cell-based, human", "protocol": "as §3, §4"}, "[3]": {"tested_on": "H1155 cells transduced with DCAF15-3xFLAG cDNA", "assay": "Cell viability assay, DCAF15 overexpression", "type": "cell-based, human", "conditions": "H1155 cells expressing higher than normal levels of DCAF15"}, "[4]": {"tested_on": "RBM39 in DCAF15−/− H1155 cells", "assay": "RBM39 degradation in DCAF15−/− cells (western blotting)", "type": "cell-based, human", "protocol": "Proteins were resolved on SDS-PAGE and transferred to 0.5 μm nitrocellulose membranes. Membranes were blocked in 5% milk TBST for 30 min, and then anti-RBM39 antibodies (HPA001591, Sigma-Aldrich) were added in 5% milk (1:5000) and incubated on a shaker overnight at 4° C. After three 5 min washes with TBST, membranes were incubated with HRP-conjugated goat anti-rabbit secondary antibody (Bio-Rad) for 2 hr at room temperature. After three 5 min washes with TBST, membranes were developed with ECL (enhanced chemiluminescence) substrates.\nTwo independent guide RNAs targeting DDB1, DDA1, DCAF15 were cloned into PX459. 0.2 million H1155 RBM39-AcGFP cells were transfected with PX459 sgRNA constructs and selected with 2 μg/ml puromycin to enrich for transfected cells. […] Cells were then trypsinized and the expression of RBM39-AGFP was quantified with flow cytometry. H1155 cells transfected with DCAF15 guide RNA were sparsely plated on 10 cm^2 plates and clones were isolated. Genomic DNA sequence flanking the cut site were amplified and sequenced to identify DCAF15−/− clones."}, "758 cancer cell lines": {"tested_on": "758 cancer cell lines", "conditions": "CTD2 AUC values; cited from earlier work"}, "human cancer cell lines": {"tested_on": "human cancer cell lines", "conditions": "cited from earlier work"}, "[5]": {"conditions": "read-out: Indisulam IC50 (log 10) (converted), U2AF1 WT"}, "[6]": {"conditions": "read-out: Indisulam IC50, U2AF1 WT"}}, "note": "Where two headings read alike, the source gives them in different places.", "data": [{"compound": "NS(=O)(=O)c1ccc(S(=O)(=O)Nc2cccc3c(Cl)c[nH]c23)cc1", "note": "[Indisulam, indisulam]", "values": [{"measurement": "IC50", "setting": "H125; NCI-H125, read-out: Indisulam IC50 (log 10) (converted), U2AF1 WT", "result": 10.8, "unit": "µM"}, {"measurement": "IC50", "setting": "H125; NCI-H125, read-out: Indisulam IC50, U2AF1 WT", "result": 10.8, "unit": "µM"}, {"measurement": "IC50", "setting": "H1703; NCI-H1703, read-out: Indisulam IC50 (log 10) (converted), U2AF1 WT", "result": 3.33, "unit": "µM"}, {"measurement": "IC50", "setting": "H1703; NCI-H1703, read-out: Indisulam IC50, U2AF1 WT", "result": 3.33, "unit": "µM"}, {"measurement": "IC50", "setting": "H1770; NCI-H1770, read-out: Indisulam IC50 (log 10) (converted), U2AF1 WT", "result": 16.2, "unit": "µM"}, {"measurement": "IC50", "setting": "H1770; NCI-H1770, read-out: Indisulam IC50, U2AF1 WT", "result": 16.2, "unit": "µM"}, {"measurement": "IC50", "setting": "H460", "result": "≥ 500", "unit": "µM"}, {"measurement": "IC50", "setting": "H720; [5]", "result": 1.79, "unit": "µM"}, {"measurement": "IC50", "setting": "H720; [6]", "result": 1.79, "unit": "µM"}, {"measurement": "IC50", "setting": "HCC2018; [5]", "result": 6.48, "unit": "µM"}, {"measurement": "IC50", "setting": "HCC2018; [6]", "result": 6.48, "unit": "µM"}, {"measurement": "IC50", "setting": "HCC2279; [5]", "result": 5.68, "unit": "µM"}, {"measurement": "IC50", "setting": "HCC2279; [6]", "result": 5.68, "unit": "µM"}, {"measurement": "IC50", "setting": "HOP62; HOP-62, read-out: Indisulam IC50 (log 10) (converted), U2AF1 WT", "result": 6.08, "unit": "µM"}, {"measurement": "IC50", "setting": "HOP62; HOP-62, read-out: Indisulam IC50, U2AF1 WT", "result": 6.08, "unit": "µM"}, {"measurement": "IC50", "setting": "H2073; Homo sapiens, NCI-H2073, read-out: Indisulam IC50 (log 10) (converted), U2AF1 WT", "result": 2.57, "unit": "µM"}, {"measurement": "IC50", "setting": "H2073; [6]", "result": 2.57, "unit": "µM"}, {"measurement": "Indisulam IC50 (log 10)", "setting": "H650; H650", "result": "−4.839 (log 10) (M)"}, {"measurement": "IC50", "setting": "H650; Homo sapiens, NCI-H650, read-out: Indisulam IC50 (log 10), H650 (converted)", "result": 13.6, "unit": "µM"}, {"measurement": "IC50", "setting": "H650; Homo sapiens, NCI-H650, read-out: Indisulam IC50, H650", "result": 13.6, "unit": "µM"}, {"measurement": "IC50", "setting": "H650; read-out: Indisulam IC50, H650", "result": 14.5, "unit": "µM"}, {"measurement": "IC50", "setting": "HCT-116 cells", "result": 0.56, "unit": "µM"}, {"measurement": "effect of G268V editing on indisulam sensitivity", "setting": "[1]", "result": "indisulam resistance"}, {"measurement": "IC50", "setting": "[2]; Homo sapiens, HCT-116, two independent RBM39 G268V knock-in HCT-116 clones", "result": 38.9, "unit": "µM"}, {"measurement": "IC50", "setting": "[2]; two independent RBM39 G268V knock-in HCT-116 clones", "result": 52.2, "unit": "µM"}, {"measurement": "sensitivity vs mock treated cells", "setting": "[3]", "result": "more sensitive"}, {"measurement": "RBM39 degradation in response to indisulam", "setting": "[4]", "result": "failed to degrade RBM39"}, {"measurement": "sensitivity to indisulam amongst hematopoietic and lymphoid (HL) lineage cell lines", "setting": "758 cancer cell lines", "result": "significantly enriched"}, {"measurement": "effect on cell cycle", "setting": "human cancer cell lines", "result": "cell cycle arrest in the G1 phase followed by cell death"}]}]}
